Paper PMC10386950 (Clinical Pharmacokinetics, 2023)

Test system: UDP-glucuronosyltransferases (UGTs)
Test: Metabolic ratio
Type: in vivo, human
Conditions: Child C patients

## OCc1ncc2n1-c1ccc(Cl)cc1C(c1ccccc1F)=NC2 [1′-Hydroxymidazolam]
  Decrease of the MR for glucuronide formation: approximately 80%
